Assay results reported in US20240366586A1, “METHODS AND AGENTS FOR MODULATING THE IMMUNE RESPONSE” (The Regents of the University of California, priority 2021, published 2024).

Columns and labels:
[1] = tested on: imiquimod-induced psoriasiform dermatitis; test: Imiquimod-induced psoriasiform dermatitis model, PASI clinical scoring; format: in vivo; settings: WT mice, topical imiquimod, daily intraperitoneal injection, vs saline/PBS
Source text: FIG. 16 depicts histology of WT mice or b1/b2 KO mice 5 days after topically applying imiquimod to their skin. Histology confirms greater thickening and scale of the skin in b1/b2 KO mice.
FIG. 19 depicts WT mice given intraperitoneal injection of the b2 selective adrenergic agonist clenbuterol or vehicle control (saline) daily in mice given topical imiquimod to induce psoriasiform dermatitis.
FIG. 20 depicts the PASI clinical scoring PBS-treated WT mice versus clenbuterol-treated WT mice.

Il12b [2] = test: Dual-fluorescence reporter macrophage cell line screen, lipopolysaccharide-stimulated: chromatinized Il12b-eGFP versus minimal Il12b-DsRed reporter; format: cell-based; settings: for inhibition of IL12b, eGFP fluorescence as readout: additional compounds of Formulas (I)-(IV), same screening procedure; for selective inhibition of the chromatinized Il12b reporter (eGFP) but not the minimal reporter (DsRed): lipopolysaccharide-stimulated dual-fluorescence reporter macrophage cell line
Source text: We hypothesized that molecules that inhibit the “chromatinized” Il12b reporter but not the “minimal” Il12b reporter would offer a greater degree of Il12b inhibition selectivity.
We generated a dual-fluorescence reporter macrophage cell line having both a [Il12b]-[eGFP] chromatin-based construct and a [Il12b]-[DSred] plasmid vector. FIG. 3. We then stimulated an […] response in the cell line using lipopolysaccharide, an activator of Il12b expression, and tested a library of over 60,000 known and unknown (i.e., undescribed in the literature) small-molecule compounds.
Additional compounds in Formulas (I)-(IV) were screened following the same procedure as described above, with eGFP fluorescence as a readout for inhibition of IL12b.

Behçet's disease = test: Treatment example: patient with Behçet's disease; format: in vivo, human; settings: topical formulation
Il12b [3] = test: RNA-Seq / ATAC-Seq of lipopolysaccharide-induced genes in treated macrophages; format: cell-based; settings: for rank of Il12b among the most strongly inhibited lipopolysaccharide-induced genes: genes with RPKM>4 and FC>10, ranked by fold change (Max RPKM with/without compound); for selective inhibition of Il12b gene expression: RNA-Seq and ATAC-Seq analyses, macrophages
Source text: Our screening experiment identified as compounds that […]. Using ATAC-Seq and RNA-Seq analyses, we confirmed that the screen indeed identified hits that work by affecting chromatin, and confirmed that β adrenergic agonists, (and in particular β2 adrenergic agonists) are indeed exquisitely selective inhibitors of Il12b gene expression.
(§1) The inhibition of Il12b by β agonists occurs upon stimulation of macrophages with other inflammatory stimuli, including CpG DNA, double stranded RNA, and imiquimod. We confirmed that the cAMP/PKA pathway, but not the exchange factor directly activated by cAMP (EPAC) pathway, was largely responsible for mediating the Il12b suppression by 0-agonists.
FIG. 7B depicts a fold change box plot in samples treated with UK17 (3-fluoro-N′-[(5-nitro-2-thienyl)methylene]benzohydrazide (CID #6895129)), classifying lipopolysaccharide-induced genes by gene-regulation cluster as previously described in Tong A. et al., A Stringent Systems Approach Uncovers Gene-Specific Mechanisms Regulating Inflammation, Cell 165 165-179 (2016). Box plots indicate the distribution of fold change values for each cluster. Red lines are drawn at 1 and −1, indicating a 2-fold up or down-regulation of genes. Il12b is labeled in red.

alopecia = test: Treatment example: patient with alopecia; format: in vivo, human; settings: topical formulation also comprising apremilast
chronic eczema = test: Treatment example: patient with chronic eczema; format: in vivo, human; settings: topical formulation
vitiligo = test: Treatment example: patient with vitiligo; format: in vivo, human; settings: topical formulation
Procedure: A patient with vitiligo is treated with a topical formulation of 11-(5-hydroxy-2-nitrobenzyl)-7,11-diazatricyclo[7.3.1.0˜2,7˜]trideca-2,4-dien-6-one (Compound III-1).

Il12b [4] = test: Il12b expression in human macrophages treated with PGE2 (RNA-Seq, RPKM vs DMSO); format: cell-based
Source text: as §1
FIG. 10 depicts a heatmap of percent expression of RPKMs as a percent of the maximum RPKM within the DMSO sample for genes with RPKMs>3 and FC>10 in at least one DMSO timepoint. The heatmap represents that for the averaged samples for each gene between Donor 0 IL34 and Donor 0 MCSF. In the left heatmap, red indicates percent expression equal to or higher than 100%. DMSO and PGE2 samples are indicated as such for timepoints 0 hr, 1 hr, 2 hr, and 6 hr. […] Here, red represents a positive difference equal to or over 100%, indicating induction, and blue representing a negative difference equal to or less than −100%, indicating inhibition. (n=2).
FIG. 11 depicts log 2 of the fold change of RPKMS after PGE2-treatment and those after DMSO treatment are shown in this scatter plot for genes with RPKMs>3 and FC>10 in at least on DMSO timepoint and this graph represents the 6-hour timepoint. […]

psoriasis = test: Treatment example: patient with psoriasis; format: in vivo, human; settings: topical formulation
Procedure: A patient with psoriasis is treated with a topical formulation of N-(2-furylmethyl)-N-[(6-methoxy-2-oxo-1H-quinolin-3-yl)methyl]-4-methyl-benzamide (Compound I-1).

lichen planus = test: Treatment example: patient with lichen planus; format: in vivo, human; settings: combination with crisaborole, both administered topically
Procedure: A patient with lichen planus is treated with a combination of N-(2-furylmethyl)-N-[(6-methoxy-2-oxo-1H-quinolin-3-yl)methyl]-4-methyl-benzamide (Compound I-1) and crisaborole, both administered topically.

SMILES | inhibition of IL12b, eGFP fluorescence as readout (Il12b [2]) | selective inhibition of the chromatinized Il12b reporter (eGFP) but not the minimal reporter (DsRed) (Il12b [2]) | also measured
CC(C)(C)NCC(O)c1cc(Cl)c(N)c(Cl)c1 (stereo not drawn) [clenbuterol] |  |  | PASI clinical score [1]: reduction in score
O=C(CCc1ccccc1)N/N=C\c1ccc([N+](=O)[O-])s1 [II-2, N—[(Z)-(5-nitrothiophen-2-yl)methylideneamino]-3-phenylpropanamide] | Positive activity |  | 
COc1ccc(Br)cc1/C=C/C(=O)c1ccc(OC)c(OC)c1 [IV-1, 3-(5-bromo-2-methoxyphenyl)-1-(3,4-dimethoxyphenyl)-2-propen-1-one] |  | selective inhibitors of chromatinized Il12b | clinical outcome (Behçet's disease): Resolution of disease; rank of Il12b among the most strongly inhibited lipopolysaccharide-induced genes (Il12b [3]): ≤ 20; clinical outcome (alopecia): Resolution of alopecia
CCOc1ccc2[nH]c(=O)c(CN(Cc3ccco3)C(=O)c3cccs3)cc2c1 [Compound I-11, N-[(6-ethoxy-2-oxo-1H-quinolin-3-yl)methyl]-N-(furan-2-ylmethyl)thiophene-2-carboxamide] | Positive activity |  | 
O=C(NN=Cc1ccc([N+](=O)[O-])s1)c1cccc(F)c1 [II-1, 3-fluoro-N′-[(5-nitro-2-thienyl)methylene]benzohydrazide] |  | selective inhibitors of chromatinized Il12b | clinical outcome (chronic eczema): Resolution of symptoms; selective inhibition of the chromatinized Il12b reporter (eGFP) but not the minimal reporter (DsRed) (Il12b [2]; listed as UK17): selective for inhibition of chromatinized Il12b; rank of Il12b among the most strongly inhibited lipopolysaccharide-induced genes (Il12b [3]): ≤ 20
CCOc1ccc2[nH]c(=O)c(CN(Cc3ccco3)C(=O)c3ccc(C(C)(C)C)cc3)cc2c1 [Compound I-3, 4-tert-butyl-N-[(6-ethoxy-2-oxo-1H-quinolin-3-yl)methyl]-N-(furan-2-ylmethyl)benzamide] | Positive activity |  | 
Cc1cc2ncn(N=Cc3ccc([N+](=O)[O-])o3)c2cc1C [UK6, 5,6-dimethyl-N-[(5-nitro-2-furyl)methylene]-1H-benzimidazol-1-amine] |  | selective inhibitors of chromatinized Il12b | rank of Il12b among the most strongly inhibited lipopolysaccharide-induced genes (Il12b [3]): ≤ 20
COc1ccc(Br)cc1/C=C/C(=O)c1ccc2c(c1)OCCO2 [IV-2, (E)-3-(5-bromo-2-methoxyphenyl)-1-(2,3-dihydro-1,4-benzodioxin-6-yl)prop-2-en-1-one] | Positive activity |  | 
O=c1cccc2n1CC1CC2CN(Cc2cc(O)ccc2[N+](=O)[O-])C1 (stereo not drawn) [III-1, 11-(5-hydroxy-2-nitrobenzyl)-7,11-diazatricyclo[7.3.1.0˜2,7˜]trideca-2,4-dien-6-one] |  | selective inhibitors of chromatinized Il12b | clinical outcome (vitiligo): Resolution of vitiligo
O=C(Cc1ccc(Cl)cc1)N/N=C\c1ccc([N+](=O)[O-])o1 [II-5, 2-(4-chlorophenyl)-N—[(Z)-(5-nitrofuran-2-yl)methylideneamino]acetamide] | Positive activity |  | 
O=C(N/N=C\c1ccc([N+](=O)[O-])o1)c1cccc2ccccc12 [II-6, N—[(Z)-(5-nitrofuran-2-yl)methylideneamino]naphthalene-1-carboxamide] | Positive activity |  | 
CCc1ccc2[nH]c(=O)c(CN(Cc3ccco3)C(=S)NCc3ccccc3)cc2c1 [Compound I-9, 3-benzyl-1-[(6-ethyl-2-oxo-1H-quinolin-3-yl)methyl]-1-(furan-2-ylmethyl)thiourea] | Positive activity |  | 
CCCCC[C@H](O)/C=C/[C@H]1[C@H](O)CC(=O)[C@@H]1C/C=C\CCCC(=O)O [prostaglandin E2, reference compound] |  |  | selective inhibition of Il12b gene expression (Il12b [3]): selectively inhibit IL12b expression; selective inhibition of Il12b in human macrophages (Il12b [4]): exquisitely selective inhibitor of Il12b
Cc1ccc(C)c2[nH]c(=O)c(CN(Cc3ccco3)C(=S)NCc3ccco3)cc12 [Compound I-10, 1-[(5,8-dimethyl-2-oxo-1H-quinolin-3-yl)methyl]-1,3-bis(furan-2-ylmethyl)thiourea] | Positive activity |  | 
COc1ccc2[nH]c(=O)c(CN(Cc3ccco3)C(=O)c3ccc(C)cc3)cc2c1 [Compound I-1, N-(2-furylmethyl)-N-[(6-methoxy-2-oxo-1H-quinolin-3-yl)methyl]-4-methyl-benzamide] |  |  | clinical outcome (psoriasis): Resolution of symptoms; clinical outcome (lichen planus): Resolution of symptoms
CCOc1ccc(NC(=S)N(Cc2ccco2)Cc2cc3ccc(C)cc3[nH]c2=O)cc1 [Compound I-6, 3-(4-ethoxyphenyl)-1-(furan-2-ylmethyl)-1-[(7-methyl-2-oxo-1H-quinolin-3-yl)methyl]thiourea] | Positive activity |  | 
CCOC(=O)C(=Cc1ccc2c(c1)C(=O)CC2=O)C(=O)OCC [diethyl [(1,3-dioxo-2,3-dihydro-1H-inden-5-yl)methylene]malonate] |  | selective inhibitors of chromatinized Il12b | 
O=C(/C(=C/c1cccnc1)c1nc2ccccc2[nH]1)c1ccccc1 [2-(1H-benzimidazol-2-yl)-1-phenyl-3-(3-pyridinyl)-2-propen-1-one] |  | selective inhibitors of chromatinized Il12b | 
CCCC(=O)Nc1ncnc2c1ncn2[C@@H]1O[C@@H]2COP(=O)(O)O[C@H]2[C@H]1OC(=O)CCC [dibutyryl cyclic AMP, reference compound] |  |  | selective inhibition of Il12b gene expression (Il12b [3]): selectively inhibit IL12b expression
O=C(N/N=C\c1ccc([N+](=O)[O-])o1)c1ccc(-c2ccccc2)cc1 [II-3, N—[(Z)-(5-nitrofuran-2-yl)methylideneamino]-4-phenylbenzamide] | Positive activity |  | 
